PMC10874388, “Cyclic peptides discriminate BCL-2 and its clinical mutants from BCL-XL by engaging a single-residue discrepancy” (Nature Communications, 2024)
Several values for one entry are separate records, joined by “and”; a condition that tells them apart may be missing. Equal entries are not always repeated.

Key:
Assay type in all cases: cell-based
A549 cells (control) = experiment: Cell viability assay (CellTiter-Glo), normal A549 (control); conditions: control A549; for luminescence reading, everage: mean of 6 wells
Experimental: The cell lines Jurkat (TIB-152), El4 (TIB-39), Daudi (ccl-213), RS4:11 (crl-1873), A549 (ccl-185), HepG2 (hb-8065) and PANC-1 (crl-1469) were purchased from ATCC (American Type Culture Collection), and MGC-803 (C6582) was purchased from Beyotime (https://www.beyotime.com/product/C6582.htm). […] Daudi and RS4:11 cells were cultured in RPMI-1640 medium (HyClone, SH30809.01) and 10% FBS (Gibco, 10099-141), whereas HepG2, MGC-803 and PANC-1 cells were cultured in MDEM (HyClone, SH30243.01). Cells were maintained at 37 °C under a humidified, 5% (v/v) CO2-containing atmosphere.
(§1) Cell viability was measured using CellTiter-Glo® 2.0 Reagent (Promega, G9242). […] After different inhibitors were added into serum-free medium and cultured for 4 h (RS4:11 for 6 h), FBS were supplemented to 10% and then incubated totally for 24 h or 48 h. Finally, the IC50 values were calculated based on measurements using a microplate reader (Thermo, Varioskan LUX). Statistical analysis was performed using software GraphPad Prism 7.0.

[1] = system: A549 cells overexpressing BCL-2 WT; experiment: Cell viability assay, A549 stably overexpressing BCL-2 WT; conditions: for luminescence reading (raw, replicate wells) / luminescence reading, everage / inhibition rate: BCL2-WT A549; for luminescence reading, everage: mean of 6 wells
Experimental: as §1
(§2) Lentivirus packaging vectors pMDLg/pRRE, pRSV-Rev, and pVSV-G were obtained from Prof. Han Jiahuai’s lab (Xiamen University). Lentiviruses were produced using 3rd-generation lentivirus packaging plasmids transiently transfected into HEK293T cells with the constructs of interest using 0.25 M CaCl2. Media was changed after 16 h, and supernatants containing infectious virus particles were harvested 24 h later. A second viral harvest was made following a further 24 h incubation with fresh media. Virus containing supernatant was filtered through a […], and stored at 4 °C or −80 °C until being used. Typically, A549 cells were seeded into 10 cm cell culture dishes at 4 ~ 8 × 10^5 cells/cm^2. An equivalent volume of virus containing culture medium was added along with polybrene (Sigma) to a final concentration of 10 µg/mL. Cells were incubated at 37 °C for 20 h, before they were washed and resuspended in fresh culture media. The expression level of BCL-2 was measured by qPCR and western blot methods.

[2] = system: A549 cells overexpressing BCL-2 G101V; experiment: Cell viability assay, A549 stably overexpressing BCL-2 G101V; conditions: for luminescence reading (raw, replicate wells) / luminescence reading, everage / inhibition rate: BCL2/G101V A549; for luminescence reading, everage: mean of 6 wells
Experimental: as §1, §2

[3] = ABT-199 0.390625 uM, replicate wells
[4] = ABT-199 0.78125 uM, replicate wells
[5] = ABT-199 1.5625 uM, replicate wells
[6] = ABT-199 3.125 uM, replicate wells
[7] = ABT-199 6.25 uM, replicate wells
[8] = ABT-199 12.5 uM, replicate wells
[9] = Homo sapiens, A549, 48 h, CellTiter-Glo, n = 6

CC1(C)CCC(CN2CCN(c3ccc(C(=O)NS(=O)(=O)c4ccc(NCC5CCOCC5)c([N+](=O)[O-])c4)c(Oc4cnc5[nH]ccc5c4)c3)CC2)=C(c2ccc(Cl)cc2)C1 [venetoclax]
luminescence reading, everage (A549 cells (control); ABT-199 50 uM): 54138
inhibition rate (A549 cells (control); ABT-199 50 uM, replicate wells): 94%
luminescence reading (raw, replicate wells) (A549 cells (control); ABT-199 100 uM): 16550 and 16810 and 16440 and 16110 and 17860 and 16240
luminescence reading, everage (A549 cells (control); ABT-199 100 uM): 16668
luminescence reading (raw, replicate wells) (A549 cells (control); ABT-199 200 uM): 6435 and 6601 and 7137 and 6682 and 6762 and 7490
luminescence reading, everage (A549 cells (control); ABT-199 200 uM): 6851
luminescence reading (raw, replicate wells) ([1]; ABT-199 0.390625 uM): 644100 and 629100 and 637900 and 643500 and 647000 and 655800
luminescence reading, everage ([1]; ABT-199 0.390625 uM): 642900
inhibition rate [1, 3]: -3.29% and -4.73% and -5.65% and -6% and -8% and -5.55%
luminescence reading (raw, replicate wells) ([1]; ABT-199 0.78125 uM): 567400 and 598600 and 586100 and 654900 and 608300 and 579900
luminescence reading, everage ([1]; ABT-199 0.78125 uM): 599200
inhibition rate [1, 4]: 1.72% and 3.77% and -7.52% and 0.129% and 5% and 1.62%
luminescence reading (raw, replicate wells) ([1]; ABT-199 1.5625 uM): 298800 and 328200 and 290000 and 313400 and 302200 and 296200
luminescence reading, everage ([1]; ABT-199 1.5625 uM): 304800
inhibition rate [1, 5]: 52% and 49% and 50% and 51%
luminescence reading (raw, replicate wells) ([1]; ABT-199 3.125 uM): 264200 and 271400 and 265500 and 281900 and 276200 and 275000
luminescence reading, everage ([1]; ABT-199 3.125 uM): 272367
inhibition rate [1, 6]: 56% and 54%
luminescence reading (raw, replicate wells) ([1]; ABT-199 6.25 uM): 239200 and 242900 and 250800 and 260000 and 262000 and 251900
luminescence reading, everage ([1]; ABT-199 6.25 uM): 251133
inhibition rate [1, 7]: 59% and 57%
luminescence reading (raw, replicate wells) ([1]; ABT-199 12.5 uM): 192300 and 201400 and 189800 and 189400 and 190500 and 194300
luminescence reading, everage ([1]; ABT-199 12.5 uM): 192950
inhibition rate [1, 8]: 69% and 68%
luminescence reading (raw, replicate wells) ([1]; ABT-199 25 uM): 124100 and 129200 and 123800 and 128900 and 121100 and 127700
luminescence reading, everage ([1]; ABT-199 25 uM): 125800
inhibition rate ([1]; ABT-199 25 uM, replicate wells): 80%
luminescence reading (raw, replicate wells) ([1]; ABT-199 50 uM): 61440 and 62870 and 63340 and 62270 and 63280 and 66020
luminescence reading, everage ([1]; ABT-199 50 uM): 63203
inhibition rate ([1]; ABT-199 50 uM, replicate wells): 89%
luminescence reading (raw, replicate wells) ([1]; ABT-199 100 uM): 19300 and 21810 and 21770 and 21930 and 21040 and 20180
luminescence reading, everage ([1]; ABT-199 100 uM): 21005
inhibition rate ([1]; ABT-199 100 uM, replicate wells): 97%
luminescence reading (raw, replicate wells) ([1]; ABT-199 200 uM): 4077 and 3911 and 4092 and 4449 and 4173 and 4465
luminescence reading, everage ([1]; ABT-199 200 uM): 4195
inhibition at 1.5625 µM ([1]; Homo sapiens, A549, BCL2-WT A549, ABT-199 1.5625 uM, replicate wells, read-out: inhibition rate): 46%
inhibition at 3.125 µM ([1]; Homo sapiens, A549, BCL2-WT A549, ABT-199 3.125 uM, replicate wells, read-out: inhibition rate): 55%
inhibition at 6.25 µM ([1]; Homo sapiens, A549, BCL2-WT A549, ABT-199 6.25 uM, replicate wells, read-out: inhibition rate): 60%
inhibition at 12.5 µM ([1]; Homo sapiens, A549, BCL2-WT A549, ABT-199 12.5 uM, replicate wells, read-out: inhibition rate): 67%
inhibition at 25 µM ([1]; Homo sapiens, A549, BCL2-WT A549, ABT-199 25 uM, replicate wells, read-out: inhibition rate): 79%
inhibition at 50 µM ([1]; Homo sapiens, A549, BCL2-WT A549, ABT-199 50 uM, replicate wells, read-out: inhibition rate): 90%
inhibition at 100 µM ([1]; Homo sapiens, A549, BCL2-WT A549, ABT-199 100 uM, replicate wells, read-out: inhibition rate): 96%
inhibition at 200 µM ([1]; Homo sapiens, A549, BCL2-WT A549, ABT-199 200 uM, replicate wells, read-out: inhibition rate): 99%
IC50 [1, 9]: 2500 ± 200 nM
luminescence reading (raw, replicate wells) ([2]; ABT-199 0.390625 uM): 626600 and 647800 and 649100 and 614500 and 623500 and 619300
luminescence reading, everage ([2]; ABT-199 0.390625 uM): 630133
inhibition rate [2, 3]: -3% and -6.36% and -6.57% and -0.889% and -2.37% and -1.68%
luminescence reading (raw, replicate wells) ([2]; ABT-199 0.78125 uM): 583300 and 568200 and 597700 and 560800 and 571600 and 528100
luminescence reading, everage ([2]; ABT-199 0.78125 uM): 568283
inhibition rate [2, 4]: 4.23% and 7% and 1.87% and 8% and 6% and 13%
luminescence reading (raw, replicate wells) ([2]; ABT-199 1.5625 uM): 398200 and 407800 and 413600 and 450500 and 408700 and 467800
luminescence reading, everage ([2]; ABT-199 1.5625 uM): 424433
inhibition rate [2, 5]: 33% and 32% and 26% and 23%
luminescence reading (raw, replicate wells) ([2]; ABT-199 3.125 uM): 271900 and 280300 and 266200 and 296500 and 277300 and 344500
luminescence reading, everage ([2]; ABT-199 3.125 uM): 289450
inhibition rate [2, 6]: 54% and 56% and 51% and 43%
luminescence reading (raw, replicate wells) ([2]; ABT-199 6.25 uM): 262900 and 273800 and 273900 and 296400 and 264200 and 315700
luminescence reading, everage ([2]; ABT-199 6.25 uM): 281150
inhibition rate [2, 7]: 51% and 48%
luminescence reading (raw, replicate wells) ([2]; ABT-199 12.5 uM): 184500 and 179700 and 182600 and 196200 and 190700 and 205800
luminescence reading, everage ([2]; ABT-199 12.5 uM): 189917
inhibition rate [2, 8]: 68% and 69% and 66%
luminescence reading (raw, replicate wells) ([2]; ABT-199 25 uM): 98970 and 101200 and 102400 and 107200 and 99210 and 118800
luminescence reading, everage ([2]; ABT-199 25 uM): 104630
inhibition rate ([2]; ABT-199 25 uM, replicate wells): 83% and 82% and 80%
luminescence reading (raw, replicate wells) ([2]; ABT-199 50 uM): 50230 and 51420 and 49850 and 51590 and 53640 and 55790
luminescence reading, everage ([2]; ABT-199 50 uM): 52087
inhibition rate ([2]; ABT-199 50 uM, replicate wells): 91%
luminescence reading (raw, replicate wells) ([2]; ABT-199 100 uM): 16880 and 17260 and 16270 and 16910 and 17660 and 17950
luminescence reading, everage ([2]; ABT-199 100 uM): 17155
luminescence reading (raw, replicate wells) ([2]; ABT-199 200 uM): 5500 and 6087 and 6493 and 5130 and 5793 and 6329
luminescence reading, everage ([2]; ABT-199 200 uM): 5889
inhibition at 1.5625 µM ([2]; Homo sapiens, A549, BCL2/G101V A549, ABT-199 1.5625 uM, replicate wells, read-out: inhibition rate): 35%
inhibition at 3.125 µM ([2]; Homo sapiens, A549, BCL2/G101V A549, ABT-199 3.125 uM, replicate wells, read-out: inhibition rate): 55%
inhibition at 6.25 µM ([2]; Homo sapiens, A549, BCL2/G101V A549, ABT-199 6.25 uM, replicate wells, read-out: inhibition rate): 57%
inhibition at 12.5 µM ([2]; Homo sapiens, A549, BCL2/G101V A549, ABT-199 12.5 uM, replicate wells, read-out: inhibition rate): 70%
inhibition at 25 µM ([2]; Homo sapiens, A549, BCL2/G101V A549, ABT-199 25 uM, replicate wells, read-out: inhibition rate): 84%
inhibition at 50 µM ([2]; Homo sapiens, A549, BCL2/G101V A549, ABT-199 50 uM, replicate wells, read-out: inhibition rate): 92%
inhibition at 100 µM ([2]; Homo sapiens, A549, BCL2/G101V A549, ABT-199 100 uM, replicate wells, read-out: inhibition rate): 97%
inhibition at 200 µM ([2]; Homo sapiens, A549, BCL2/G101V A549, ABT-199 200 uM, replicate wells, read-out: inhibition rate): 99%
IC50 [2, 9]: 4.1 ± 0.3 µM
